SMILES strings stand for the structures.

Broadly, the IC50 is the midpoint of a concentration-inhibition curve.

In assay [1] the target is T1, BRD4 bromo domain 1 [BRD4(1)] (Homo sapiens, UniProt O60885).
T1 construct: N-terminally His6-tagged BRD4(1) (amino acids 67-152); made in house; host or cells: E. coli
The assay can be described thus: BRD4(1)/acetylated peptide H4 binding assay (TR-FRET). As to conditions: inhibition of interaction between His6-tagged BRD4(1) (amino acids 67-152) and acetylated histone H4 peptide. From the text:
(§1) Protein-Protein Interaction Assay: BRD4/Acetylated Peptide H4 Binding Assay
1. Assay Description for BRD4 Bromo Domain 1 [BRD4(1)]
To assess the BRD4(1) binding strength of the substances described in this application, the ability thereof to inhibit the interaction between BRD4(1) and acetylated histone H4 in a dose-dependent manner was quantified.
(§2) For this purpose, a time-resolved fluorescence resonance energy transfer (TR-FRET) assay was used, which measures the binding between N-terminally His6-tagged BRD4(1) (amino acids 67-152) and a synthetic acetylated histone H4 (Ac-H4) peptide with sequence GRGK(Ac)GGK(Ac)GLGK(Ac)GGAK(Ac)RHGSGSK-biotin. The recombinant BRD4(1) protein produced in-house according to Filippakopoulos et al., Cell, 2012, 149:214-231 was expressed in E. coli and purified by means of (Ni-NTA) affinity and (Sephadex G-75) size exclusion chromatography. The Ac-H4 peptide can be purchased, for example, from Biosyntan (Berlin, Germany).
(§3) In the assay, typically 11 different concentrations of each substance (0.1 nM, 0.33 nM, 1.1 nM, 3.8 nM, 13 nM, 44 nM, 0.15 μM, 0.51 μM, 1.7 μM, 5.9 μM and 20 μM) were analysed as duplicates on the same microtitre plate. For this purpose, 100-fold concentrated solutions in DMSO were prepared by serial dilutions (1:3.4) of a 2 mM stock solution into a clear, 384-well microtitre plate (Greiner Bio-One, Frickenhausen, Germany). From this, 50 nl were transferred into a black test plate (Greiner Bio-One, Frickenhausen, Germany). The test was started by the addition of 2 μl of a 2.5-fold concentrated BRD4(1) solution (final concentration typically 10 nM in the 5 μl of reaction volume) in aqueous assay buffer [50 mM HEPES pH 7.5, 50 mM sodium chloride (NaCl), 0.25 mM CHAPS and 0.05% serum albumin (BSA)] to the substances in the test plate. This was followed by a 10-minute incubation step at 22° C. for the pre-equilibration of putative complexes between BRD4(1) and the substances.
(§4) The mixture was then incubated in the dark at 22° C. for one hour and then at 4° C. for at least 3 hours and for no longer than overnight. The formation of BRD4(1)/Ac-H4 complexes was determined by the measurement of the resonance energy transfer from the streptavidin-Eu cryptate to the anti-6His-XL665 antibody present in the reaction. For this purpose, the fluorescence emission was measured at 620 nm and 665 nm after excitation at 330-350 nm in a TR-FRET measuring instrument, for example a Rubystar or Pherastar (both from BMG Lab Technologies, Offenburg, Germany) or a Viewlux (Perkin-Elmer). The ratio of the emissions at 665 nm and at 622 nm was taken as an indicator of the amount of BRD4(1)/Ac-H4 complexes formed.
The data (ratios) obtained were normalized, with 0% inhibition corresponding to the mean from the measurements for a set of controls (typically 32 data points) in which all the reagents were present. In these, in place of test substances, 50 nl of DMSO (100%) were used. Inhibition of 100% corresponded to the mean from the measurements for a set of controls (typically 32 data points) in which all the reagents except BRD4(1) were present. The IC50 was determined by regression analysis based on a 4-parameter equation (minimum, maximum, IC50, Hill; Y=max+(min−max)/(1+(X/IC50)Hill).

Assay [2] concerns the target T2, BRD4 bromo domain 2 [BRD4(2)] (Homo sapiens, UniProt O60885).
T2 construct: N-terminally His6-tagged BRD4(2) (amino acids 357-445); made in house; host or cells: E. coli
Briefly: BRD4(2)/acetylated peptide H4 binding assay (TR-FRET). Conditions: inhibition of interaction between His6-tagged BRD4(2) (amino acids 357-445) and acetylated histone H4 peptide.
Text: as §1
2. Assay Description for BRD4 Bromo Domain 2 [BRD4(2)]
To assess the BRD4(2) binding strength of the substances described in this application, the ability thereof to inhibit the interaction between BRD4(2) and acetylated histone H4 in a dose-dependent manner was quantified.
as §2, with “BRD4(2)” for “BRD4(1)”, “357-445)” for “67-152)”, “SGRGK(Ac)GGK(Ac)GLGK(Ac)GGAK(Ac)RHRKVLRDNGSGSK-biotin.” for “GRGK(Ac)GGK(Ac)GLGK(Ac)GGAK(Ac)RHGSGSK-biotin.”
as §3, with “concentrated BRD4(2)” for “concentrated BRD4(1)”, “typically 100” for “typically 10”, “chloride (NaCl); 50 mM potassium fluoride (KF);” for “chloride (NaCl),”, “between BRD4(2)” for “between BRD4(1)”
as §4, with “BRD4(2)/Ac-H4” for “BRD4(1)/Ac-H4”, “chelate” for “cryptate”
The data (ratios) obtained were normalized, with 0% inhibition corresponding to the mean from the measurements for a set of controls (typically 32 data points) in which all the reagents were present. In these, in place of test substances, 50 nl of DMSO (100%) were used. Inhibition of 100% corresponded to the mean from the measurements for a set of controls (typically 32 data points) in which all the reagents except BRD4(2) were present. The IC50 was determined by regression analysis based on a 4-parameter equation (minimum, maximum, IC50, Hill; Y=max+(min−max)/(1+(X/IC50)Hill).
(TR-FRET usually uses a lanthanide donor and a delayed reading to cut background.)

On to `C[C@@H]1C(=O)N(C)c2ccc(Nc3ccc(S(=O)(=O)NC4CCN(C)CC4)cc3)nc2N1c1ccccc1` [Example 108, 4-{[(3R)-1,3-Dimethyl-2-oxo-4-phenyl-1,2,3,4-tetrahydropyrido[2,3-b]pyrazin-6-yl]amino}-N-(1-methylpiperidin-4-yl)benzenesulphonamide], for which the IC50 is 63 nM in assay [1] and 239 nM in assay [2].
For `C[C@@H]1C(=O)N(C)c2ccc(Nc3ccc(S(=O)(=O)NCCc4cccnc4)cc3)nc2N1C1CCOCC1` [Example 19, 4-{[(3R)-1,3-dimethyl-2-oxo-4-(tetrahydro-2H-pyran-4-yl)-1,2,3,4-tetrahydropyrido[2,3-b]pyrazin-6-yl]amino}-N-[2-(pyridin-3-yl)ethyl]benzene-sulphonamide], in that order: 219 nM and 185 nM.
For `COc1cc(C(=O)N2CC3(CCS3(=O)=O)C2)ccc1Nc1ccc2c(n1)N(C1CCCCC1)[C@H](C)C(=O)N2C` [Example 74, (3R)-4-Cyclohexyl-6-({4-[(1,1-dioxido-1-thia-6-azaspiro[3.3]hept-6-yl)carbonyl]-2-methoxyphenyl}amino)-1,3-dimethyl-3,4-dihydropyrido[2,3-b]pyrazin-2(1H)-one], the figures for the IC50 in assay [1] and in assay [2] were 300 nM and 156 nM, respectively.
For `C[C@@H]1C(=O)N(C)c2ccc(Nc3ccc(S(=O)(=O)N(C)C)cc3)nc2N1Cc1ccccc1` [Example 94, 4-{[(3R)-4-Benzyl-1,3-dimethyl-2-oxo-1,2,3,4-tetrahydropyrido[2,3-b]pyrazin-6-yl]amino}-N,N-dimethylbenzenesulphonamide], in that order: 156 nM and 111 nM.
Take `COc1cc(C(=O)NCc2ccccn2)ccc1Nc1ccc2c(n1)N(C1CCOCC1)[C@H](C)C(=O)N2C` [Example 47, 4-{[(3R)-1,3-Dimethyl-2-oxo-4-(tetrahydro-2H-pyran-4-yl)-1,2,3,4-tetrahydropyrido[2,3-b]pyrazin-6-yl]amino}-3-methoxy-N-(pyridin-2-ylmethyl)benzamide]: the IC50 in assay [1] worked out at 201 nM; in assay [2], 112 nM.
Take `COc1cc(C(=O)N[C@H]2CC[C@H](NC(=O)OC(C)(C)C)CC2)ccc1Nc1ccc2c(n1)N(C1CCOCC1)[C@H](C)C(=O)N2C` [Example 59, tert-Butyl {trans-4-[(4-{[(3R)-1,3-dimethyl-2-oxo-4-(tetrahydro-2H-pyran-4-yl)-1,2,3,4-tetrahydropyrido[2,3-b]pyrazin-6-yl]amino}-3-methoxybenzoyl)amino]cyclohexyl}carbamate]: the figures for the IC50 in assay [1] and in assay [2] were 533 nM and 323 nM, respectively.
For `C[C@@H]1C(=O)N(C)c2ccc(Nc3ccc(C(=O)N[C@H]4CC[C@H](N5CCN(CC6CC6)CC5)CC4)cc3)nc2N1C1CCCCCC1` [Example 44, 4-{[(3R)-4-Cycloheptyl-1,3-dimethyl-2-oxo-1,2,3,4-tetrahydropyrido[2,3-b]pyrazin-6-yl]amino}-N-{trans-4-[4-(cyclopropylmethyl)piperazin-1-yl]cyclohexyl}benzamide] the same measures were 368 nM and 283 nM.
For `C[C@@H]1C(=O)N(C)c2ccc(Nc3ccc(C(=O)NC4CCC(N5CCC(F)(F)CC5)CC4)cc3)nc2N1C1CCCCC1` (stereo partly drawn) [Example 71, 4-{[(3R)-4-Cyclohexyl-1,3-dimethyl-2-oxo-1,2,3,4-tetrahydropyrido[2,3-b]pyrazin-6-l]amino}-N-[4-(4,4-difluoropiperidin-1-yl)cyclohexyl]benzamide] the same measures were 961 nM and 445 nM.
For `Cc1cc(C(=O)NC2CCN(C)CC2)ccc1Nc1ccc2c(n1)N(C1CCOCC1)[C@H](C)C(=O)N2C` [Example 54, 4-{[(3R)-1,3-Dimethyl-2-oxo-4-(tetrahydro-2H-pyran-4-yl)-1,2,3,4-tetrahydropyrido[2,3-b]pyrazin-6-yl]amino}-3-methyl-N-(1-methylpiperidin-4-yl)benzamide], in that order: 357 nM and 354 nM.
Consider `CC(C)N1CCN(S(=O)(=O)c2ccc(Nc3ccc4c(n3)N(C3CCOCC3)[C@H](C)C(=O)N4C)cc2)CC1` [Example 16, (3R)-1,3-Dimethyl-6-[(4-{[4-(propan-2-yl)piperazin-1-yl]sulphonyl}phenyl)amino]-4-(tetrahydro-2H-pyran-4-yl)-3,4-dihydropyrido[2,3-b]pyrazin-2(1H)-one], for which the results for the IC50 in assay [1] and in assay [2] were 286 nM and 212 nM, respectively.
In the case of `COc1cc(C(=O)N2CCC(F)CC2)ccc1Nc1ccc2c(n1)N(Cc1ccccc1)[C@H](C)C(=O)N2C` [Example 43, (3R)-4-Benzyl-6-({4-[(4-fluoropiperidin-1-yl)carbonyl]-2-methoxyphenyl}amino)-1,3-dimethyl-3,4-dihydropyrido[2,3-b]pyrazin-2(1H)-one], the IC50 in assay [1] was 218 nM; in assay [2] it was 102 nM.
Consider `COc1cc(S(=O)(=O)N2CCN(C)CC2)ccc1Nc1ccc2c(n1)N(C1CCOCC1)[C@H](C)C(=O)N2C` [Example 112, (3R)-6-({2-Methoxy-4-[(4-methylpiperazin-1-yl)sulphonyl]phenyl}amino)-1,3-dimethyl-4-(tetrahydro-2H-pyran-4-yl)-3,4-dihydropyrido[2,3-b]pyrazin-2(1H)-one], for which the 50% inhibitory concentration (IC50) in assay [1] came out at 106 nM; in assay [2], 86 nM.

These data come from patent US20160193206A1, “BET-PROTEIN-INHIBITING DIHYDROPYRIDOPYRAZINONES” (BAYER PHARMA AKTIENGESELLSCHAFT, priority 2012, published 2016).
